Tests used:
Assay type in all cases: in vivo
[1] = tested on: redroot pigweed (Amaranthus retroflexus, AMARE); assay: Pre-emerge test, greenhouse herbicide activity screening; details: for Pre-emerge herbicidal activity, phytotoxicity rating AMARE: rating scale 0-100, 14 days after application; for Pre-emerge Herbicidal Activity AMARE: phytotoxicity rating 0-100 at 14 days after application
How it was run: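 Plants grown in 10 cm pots of sandy loam mix received acetone-dissolved compounds through a moving flat-fan nozzle. Doses ranged from 15 to 1000 g ai/ha. Pre-emerge pots were seeded one day earlier, post-emerge pots 8–21 days earlier. Fourteen days on, each pot was graded 0–100 for damage.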

[2] = tested on: barnyardgrass (Echinochloa crus-galli, ECHCG); assay: as above; details: for Pre-emerge herbicidal activity, phytotoxicity rating ECHCG: rating scale 0-100, 14 days after application; for Pre-emerge Herbicidal Activity ECHCG: phytotoxicity rating 0-100 at 14 days after application
How it was run: (§1)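 Compounds in acetone were track-sprayed at 15–1000 g ai/ha: pre-emergence onto soil sown the previous day, then top-watered to incorporate and later bottom-watered; post-emergence onto 2–3 leaf plants with 0.25% v/v surfactant, bottom-watered only. Ratings on a 0–100 phytotoxicity scale were taken at day 14.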

[3] = tested on: green foxtail (Setaria viridis, SETVI); assay: as above; details: for Pre-emerge herbicidal activity, phytotoxicity rating SETVI: rating scale 0-100, 14 days after application; for Pre-emerge Herbicidal Activity SETVI: phytotoxicity rating 0-100 at 14 days after application
How it was run: as §1

[4] = tested on: ivyleaf morningglory (Ipomoea hederacea, IPOHE); assay: as above; details: for Pre-emerge herbicidal activity, phytotoxicity rating IPOHE: rating scale 0-100, 14 days after application; for Pre-emerge Herbicidal Activity IPOHE: phytotoxicity rating 0-100 at 14 days after application
How it was run: as §1

[5] = tested on: johnsongrass (Sorghum halepense, SORHA); assay: as above; details: for Pre-emerge herbicidal activity, phytotoxicity rating SORHA: rating scale 0-100, 14 days after application; for Pre-emerge Herbicidal Activity SORHA: phytotoxicity rating 0-100 at 14 days after application
How it was run: as §1

[6] = tested on: lambsquarters (Chenopodium album, CHEAL); assay: as above; details: for Pre-emerge herbicidal activity, phytotoxicity rating CHEAL: rating scale 0-100, 14 days after application; for Pre-emerge Herbicidal Activity CHEAL: phytotoxicity rating 0-100 at 14 days after application
How it was run: as §1

[7] = tested on: large crabgrass (Digitaria sanguinalis, DIGSA); assay: as above; details: for Pre-emerge herbicidal activity, phytotoxicity rating DIGSA: rating scale 0-100, 14 days after application; for Pre-emerge Herbicidal Activity DIGSA: phytotoxicity rating 0-100 at 14 days after application
How it was run: as §1

[8] = tested on: sicklepod (Cassia obtusifolia, CASOB); assay: as above; details: for Pre-emerge herbicidal activity, phytotoxicity rating CASOB: rating scale 0-100, 14 days after application; for Pre-emerge Herbicidal Activity CASOB: phytotoxicity rating 0-100 at 14 days after application
How it was run: as §1

[9] = tested on: velvetleaf (Abutilon theophrasti, ABUTH); assay: as above; details: for Pre-emerge herbicidal activity, phytotoxicity rating ABUTH: rating scale 0-100, 14 days after application; for Pre-emerge Herbicidal Activity ABUTH: phytotoxicity rating 0-100 at 14 days after application
How it was run: as §1

[10] = tested on: field corn (Zea mays L., var. Dekalb 535, CORN); assay: Pre-emerge test, crop safety; details: for Pre-emerge phytotoxicity rating, crop damage CORN: rating scale 0-100, 14 days after application; for Pre-emerge Herbicidal Activity CORN: crop damage, phytotoxicity rating 0-100 at 14 days after application
How it was run: (§2)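 Visual ratings on a 0-100 scale (0 no damage, 100 all plants dead) were taken at 14 days after treatment. Rates of 15-1000 g ai/ha in acetone, 187 l/ha, were sprayed onto soil one day after planting (pre-emerge) or onto 2-3 leaf plants with 0.25% v/v surfactant (post-emerge).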

[11] = tested on: upland rice (Oryza sp., var. Tebonnet, RICE); assay: Pre-emerge test, crop safety; details: for Pre-emerge phytotoxicity rating, crop damage RICE: rating scale 0-100, 14 days after application; for Pre-emerge Herbicidal Activity RICE: crop damage, phytotoxicity rating 0-100 at 14 days after application
How it was run: as §2

[12] = tested on: barnyardgrass (Echinochloa crus-galli, ECHCG); assay: Post-emerge test, greenhouse herbicide activity screening; details: post-emerge, phytotoxicity rating 0-100 at 14 days after application
How it was run: (§3)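 Compounds in acetone were track-sprayed at 15-1000 g ai/ha (187 l/ha) on sandy loam pots: pre-emerge one day after seeding, post-emerge at 2-3 leaf stage with 0.25% v/v non-ionic surfactant. Phytotoxicity was rated 14 days later on a 0 (no damage) to 100 (complete death) scale.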

[13] = tested on: green foxtail (Setaria viridis, SETVI); assay: as above; details: post-emerge, phytotoxicity rating 0-100 at 14 days after application
How it was run: as §3

[14] = tested on: ivyleaf morningglory (Ipomoea hederacea, IPOHE); assay: as above; details: post-emerge, phytotoxicity rating 0-100 at 14 days after application
How it was run: as §3

[15] = tested on: johnsongrass (Sorghum halepense, SORHA); assay: as above; details: post-emerge, phytotoxicity rating 0-100 at 14 days after application
How it was run: as §3

[16] = tested on: lambsquarters (Chenopodium album, CHEAL); assay: as above; details: post-emerge, phytotoxicity rating 0-100 at 14 days after application
How it was run: as §3

[17] = tested on: large crabgrass (Digitaria sanguinalis, DIGSA); assay: as above; details: post-emerge, phytotoxicity rating 0-100 at 14 days after application
How it was run: as §3

[18] = tested on: redroot pigweed (Amaranthus retroflexus, AMARE); assay: as above; details: post-emerge, phytotoxicity rating 0-100 at 14 days after application
How it was run: as §3

[19] = tested on: sicklepod (Cassia obtusifolia, CASOB); assay: as above; details: post-emerge, phytotoxicity rating 0-100 at 14 days after application
How it was run: as §3

[20] = tested on: velvetleaf (Abutilon theophrasti, ABUTH); assay: as above; details: post-emerge, phytotoxicity rating 0-100 at 14 days after application
How it was run: as §3

[21] = tested on: field corn (Zea mays L., var. Dekalb 535, CORN); assay: Post-emerge test, crop safety; details: post-emerge, crop damage rating 0-100 at 14 days after application
How it was run: (§4)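 Rating: 0–100 visual injury, 14 DAA. Application: acetone, 187 l/ha, 15–1000 g ai/ha, flat-fan track sprayer with nozzle 40–45 cm above soil or canopy. Post-emerge runs used 0.25% v/v surfactant on 2–3 leaf plants.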

[22] = tested on: upland rice (Oryza sp., var. Tebonnet, RICE); assay: Post-emerge test, crop safety; details: post-emerge, crop damage rating 0-100 at 14 days after application
How it was run: as §4

SMILES: Nc1c(O)c(Cl)cc(F)c1N1C(=O)C2CCCCN2C1=S (single isomer, unassigned) [12-3]
- Pre-emerge herbicidal activity, phytotoxicity rating AMARE ([1]; 63 g ai/ha): 95
- Pre-emerge herbicidal activity, phytotoxicity rating AMARE ([1]; 250 g ai/ha): 100
- Pre-emerge herbicidal activity, phytotoxicity rating ECHCG ([2]; 63 g ai/ha): 0
- Pre-emerge herbicidal activity, phytotoxicity rating ECHCG ([2]; 250 g ai/ha): 0
- Pre-emerge herbicidal activity, phytotoxicity rating SETVI ([3]; 63 g ai/ha): 0
- Pre-emerge herbicidal activity, phytotoxicity rating SETVI ([3]; 250 g ai/ha): 30
- Pre-emerge herbicidal activity, phytotoxicity rating IPOHE ([4]; 63 g ai/ha): 0
- Pre-emerge herbicidal activity, phytotoxicity rating IPOHE ([4]; 250 g ai/ha): 90
- Pre-emerge herbicidal activity, phytotoxicity rating SORHA ([5]; 63 g ai/ha): 0
- Pre-emerge herbicidal activity, phytotoxicity rating SORHA ([5]; 250 g ai/ha): 0
- Pre-emerge herbicidal activity, phytotoxicity rating CHEAL ([6]; 63 g ai/ha): 100
- Pre-emerge herbicidal activity, phytotoxicity rating CHEAL ([6]; 250 g ai/ha): 100
- Pre-emerge herbicidal activity, phytotoxicity rating DIGSA ([7]; 63 g ai/ha): 0
- Pre-emerge herbicidal activity, phytotoxicity rating DIGSA ([7]; 250 g ai/ha): 30
- Pre-emerge herbicidal activity, phytotoxicity rating CASOB ([8]; 63 g ai/ha): 30
- Pre-emerge herbicidal activity, phytotoxicity rating CASOB ([8]; 250 g ai/ha): 70
- Pre-emerge herbicidal activity, phytotoxicity rating ABUTH ([9]; 63 g ai/ha): 100
- Pre-emerge herbicidal activity, phytotoxicity rating ABUTH ([9]; 250 g ai/ha): 100
- Pre-emerge phytotoxicity rating, crop damage CORN ([10]; 63 g ai/ha): 0
- Pre-emerge phytotoxicity rating, crop damage CORN ([10]; 250 g ai/ha): 0
- Pre-emerge phytotoxicity rating, crop damage RICE ([11]; 63 g ai/ha): 10
- Pre-emerge phytotoxicity rating, crop damage RICE ([11]; 250 g ai/ha): 20
- Post-emerge Herbicidal Activity ECHCG ([12]; 63 g ai/ha): 0
- Post-emerge Herbicidal Activity ECHCG ([12]; 250 g ai/ha): 10
- Post-emerge Herbicidal Activity SETVI ([13]; 63 g ai/ha): 0
- Post-emerge Herbicidal Activity SETVI ([13]; 250 g ai/ha): 0
- Post-emerge Herbicidal Activity IPOHE ([14]; 63 g ai/ha): 50
- Post-emerge Herbicidal Activity IPOHE ([14]; 250 g ai/ha): 90
- Post-emerge Herbicidal Activity SORHA ([15]; 63 g ai/ha): 0
- Post-emerge Herbicidal Activity SORHA ([15]; 250 g ai/ha): 50
- Post-emerge Herbicidal Activity CHEAL ([16]; 63 g ai/ha): 90
- Post-emerge Herbicidal Activity CHEAL ([16]; 250 g ai/ha): 100
- Post-emerge Herbicidal Activity DIGSA ([17]; 63 g ai/ha): 0
- Post-emerge Herbicidal Activity DIGSA ([17]; 250 g ai/ha): 0
- Post-emerge Herbicidal Activity AMARE ([18]; 63 g ai/ha): 95
- Post-emerge Herbicidal Activity AMARE ([18]; 250 g ai/ha): 99
- Post-emerge Herbicidal Activity CASOB ([19]; 63 g ai/ha): 20
- Post-emerge Herbicidal Activity CASOB ([19]; 250 g ai/ha): 80
- Post-emerge Herbicidal Activity ABUTH ([20]; 63 g ai/ha): 90
- Post-emerge Herbicidal Activity ABUTH ([20]; 250 g ai/ha): 90
- Post-emerge Herbicidal Activity CORN ([21]; 63 g ai/ha): 5
- Post-emerge Herbicidal Activity CORN ([21]; 250 g ai/ha): 10
- Post-emerge Herbicidal Activity RICE ([22]; 63 g ai/ha): 0
- Post-emerge Herbicidal Activity RICE ([22]; 250 g ai/ha): 5

SMILES: COc1c(Cl)cc(F)c(N2C(=O)C3=C(CCCC3)C2=O)c1NC(=O)C=Cc1ccccc1 [8-31]
- Pre-emerge Herbicidal Activity AMARE ([1]; rate 63 g ai/ha): 90
- Pre-emerge Herbicidal Activity AMARE ([1]; rate 250 g ai/ha): 100
- Pre-emerge Herbicidal Activity ECHCG ([2]; rate 63 g ai/ha): 0
- Pre-emerge Herbicidal Activity ECHCG ([2]; rate 250 g ai/ha): 0
- Pre-emerge Herbicidal Activity SETVI ([3]; rate 63 g ai/ha): 10
- Pre-emerge Herbicidal Activity SETVI ([3]; rate 250 g ai/ha): 10
- Pre-emerge Herbicidal Activity IPOHE ([4]; rate 63 g ai/ha): 0
- Pre-emerge Herbicidal Activity IPOHE ([4]; rate 250 g ai/ha): 30
- Pre-emerge Herbicidal Activity SORHA ([5]; rate 63 g ai/ha): 0
- Pre-emerge Herbicidal Activity SORHA ([5]; rate 250 g ai/ha): 10
- Pre-emerge Herbicidal Activity CHEAL ([6]; rate 63 g ai/ha): 100
- Pre-emerge Herbicidal Activity CHEAL ([6]; rate 250 g ai/ha): 100
- Pre-emerge Herbicidal Activity DIGSA ([7]; rate 63 g ai/ha): 0
- Pre-emerge Herbicidal Activity DIGSA ([7]; rate 250 g ai/ha): 10
- Pre-emerge Herbicidal Activity CASOB ([8]; rate 63 g ai/ha): 0
- Pre-emerge Herbicidal Activity CASOB ([8]; rate 250 g ai/ha): 20
- Pre-emerge Herbicidal Activity ABUTH ([9]; rate 63 g ai/ha): 60
- Pre-emerge Herbicidal Activity ABUTH ([9]; rate 250 g ai/ha): 95
- Pre-emerge Herbicidal Activity CORN ([10]; rate 63 g ai/ha): 0
- Pre-emerge Herbicidal Activity CORN ([10]; rate 250 g ai/ha): 10
- Pre-emerge Herbicidal Activity RICE ([11]; rate 63 g ai/ha): 0
- Pre-emerge Herbicidal Activity RICE ([11]; rate 250 g ai/ha): 30
- Post-emerge Herbicidal Activity SETVI ([13]; 63 g ai/ha): 20
- Post-emerge Herbicidal Activity SETVI ([13]; 250 g ai/ha): 20
- Post-emerge Herbicidal Activity IPOHE ([14]; 63 g ai/ha): 100
- Post-emerge Herbicidal Activity IPOHE ([14]; 250 g ai/ha): 100
- Post-emerge Herbicidal Activity SORHA ([15]; 63 g ai/ha): 10
- Post-emerge Herbicidal Activity SORHA ([15]; 250 g ai/ha): 30
- Post-emerge Herbicidal Activity CHEAL ([16]; 63 g ai/ha): 100
- Post-emerge Herbicidal Activity CHEAL ([16]; 250 g ai/ha): 100
- Post-emerge Herbicidal Activity DIGSA ([17]; 63 g ai/ha): 10
- Post-emerge Herbicidal Activity DIGSA ([17]; 250 g ai/ha): 30
- Post-emerge Herbicidal Activity AMARE ([18]; 63 g ai/ha): 100
- Post-emerge Herbicidal Activity AMARE ([18]; 250 g ai/ha): 100
- Post-emerge Herbicidal Activity CASOB ([19]; 63 g ai/ha): 60
- Post-emerge Herbicidal Activity CASOB ([19]; 250 g ai/ha): 80
- Post-emerge Herbicidal Activity ABUTH ([20]; 63 g ai/ha): 100
- Post-emerge Herbicidal Activity ABUTH ([20]; 250 g ai/ha): 100
- Post-emerge Herbicidal Activity CORN ([21]; 63 g ai/ha): 10
- Post-emerge Herbicidal Activity CORN ([21]; 250 g ai/ha): 10
- Post-emerge Herbicidal Activity RICE ([22]; 63 g ai/ha): 45
- Post-emerge Herbicidal Activity RICE ([22]; 250 g ai/ha): 30

Reference: patent publication US6355799B1, “Substituted benzene compounds, process for their preparation, and herbicidal and defoliant compositions containing them” (ISK Americas Incorporated, priority 1997, dated 2002)
